Experimental data as given in ChEMBL document CHEMBL4311997, “Discovery of a potent histone deacetylase (HDAC) 3/6 selective dual inhibitor” (Eur J Med Chem, 2019).
The source made the active and inactive calls. No cut-off for these calls is given here.

Legend:
[1] = target: T1, Protein deacetylase HDAC6 (Homo sapiens, UniProt Q9UBN7); assay: Inhibition of human HDAC6 using Arg-His-Lys-Lys (Ac) as substrate incubated for 2 hrs by fluorescence assay
T1 sequence (Q9UBN7 whole entry): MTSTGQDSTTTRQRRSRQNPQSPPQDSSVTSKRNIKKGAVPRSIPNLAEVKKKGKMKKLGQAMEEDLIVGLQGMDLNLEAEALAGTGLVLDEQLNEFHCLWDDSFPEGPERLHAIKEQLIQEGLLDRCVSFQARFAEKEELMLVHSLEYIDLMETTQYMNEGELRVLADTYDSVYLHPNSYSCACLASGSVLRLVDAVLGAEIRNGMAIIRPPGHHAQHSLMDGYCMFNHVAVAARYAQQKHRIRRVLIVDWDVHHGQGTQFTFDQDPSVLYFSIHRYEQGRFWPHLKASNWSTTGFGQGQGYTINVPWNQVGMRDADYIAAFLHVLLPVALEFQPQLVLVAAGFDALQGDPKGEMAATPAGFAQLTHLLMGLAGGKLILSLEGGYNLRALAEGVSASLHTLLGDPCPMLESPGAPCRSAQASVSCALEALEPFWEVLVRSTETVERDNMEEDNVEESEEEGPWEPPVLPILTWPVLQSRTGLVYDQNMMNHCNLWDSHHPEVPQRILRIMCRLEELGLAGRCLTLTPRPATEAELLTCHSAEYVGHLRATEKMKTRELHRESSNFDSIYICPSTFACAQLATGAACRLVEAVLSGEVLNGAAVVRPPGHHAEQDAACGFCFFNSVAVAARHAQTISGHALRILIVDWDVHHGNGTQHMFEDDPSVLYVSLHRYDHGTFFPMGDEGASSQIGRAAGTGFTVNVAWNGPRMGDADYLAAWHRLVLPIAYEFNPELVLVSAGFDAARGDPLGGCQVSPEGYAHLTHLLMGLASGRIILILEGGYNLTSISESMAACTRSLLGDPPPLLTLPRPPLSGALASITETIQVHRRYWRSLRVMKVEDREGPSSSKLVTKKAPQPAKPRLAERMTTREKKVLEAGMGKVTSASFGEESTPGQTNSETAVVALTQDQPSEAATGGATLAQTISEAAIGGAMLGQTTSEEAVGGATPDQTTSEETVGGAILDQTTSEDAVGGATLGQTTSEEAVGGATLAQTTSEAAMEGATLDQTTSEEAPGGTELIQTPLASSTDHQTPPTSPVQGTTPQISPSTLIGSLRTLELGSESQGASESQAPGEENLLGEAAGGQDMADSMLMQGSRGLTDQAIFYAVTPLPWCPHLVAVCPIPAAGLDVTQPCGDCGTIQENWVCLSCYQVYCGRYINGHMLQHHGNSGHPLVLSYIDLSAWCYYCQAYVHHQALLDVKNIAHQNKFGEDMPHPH

MDA-MB-231 [2] = assay: Antiproliferative activity against human MDA-MB-231 cells incubated for 72 hrs by MTT assay; format: functional, cell-based; conditions: MDA-MB-231, 72 h
Histone deacetylase 1 = Histone deacetylase 1 (Homo sapiens, UniProt Q13547)
Description: Inhibition of human HDAC1 using Arg-His-Lys-Lys (Ac) as substrate incubated for 2 hrs by fluorescence assay

MCF7 = assay: Antiproliferative activity against human MCF7 cells incubated for 72 hrs by MTT assay; format: functional, cell-based; conditions: MCF7, 72 h
Plasmodium falciparum [3] = assay: microbe, parasite or virus in culture; format: functional, organism-based; conditions: 3D7, 48 h
Description: Antimalarial activity against ring stage Plasmodium falciparum 3D7 incubated for 48 hrs by Hoechst 33342 staining based fluorescence based assay

KMS-12-BM = assay: Effect on human KMS-12-BM cells assessed as inhibition in H3K9Me2 level at 2 to 10 uM incubated for 24 hrs by Western blot analysis; format: functional, cell-based
[4] = target: Histone deacetylase 1/2/3 (Homo sapiens, UniProt Q13547+O15379+Q92769); assay: Inhibition of HDAC1/2/3 in human KMS-12-BM cells assessed as increase in Ac-H3 level at 2 to 10 uM incubated for 24 hrs by Western blot analysis; format: cell-based
[5] = Selectivity index, ratio of EC50 for human MDA-MB-231 cells to IC50 for ring stage Plasmodium falciparum K1; format: functional; set-up: reference not given here
Plasmodium falciparum [6] = assay: microbe, parasite or virus in culture; format: functional, organism-based; conditions: K1, 48 h
Description: Antimalarial activity against ring stage Plasmodium falciparum K1 incubated for 48 hrs by Hoechst 33342 staining based fluorescence based assay

[7] = Selectivity index, ratio of EC50 for human MDA-MB-231 cells to IC50 for ring stage Plasmodium falciparum 3D7; format: functional; set-up: reference not given here
OPM-2 = assay: Antiproliferative activity against human OPM2 cells incubated for 48 hrs by CellTiter-Glo luminescent cell viability assay; format: functional, cell-based; conditions: OPM-2, 48 h
[8] = target: Protein deacetylase HDAC6 (Homo sapiens) (UniProt Q9UBN7); assay: Potency index, ratio of IC50 for vorinostat to IC50 for test compound for human HDAC6
MDA-MB-231 [9] = assay: Induction of apoptosis in human MDA-MB-231 cells assessed as late apoptotic cells at 1 uM incubated for 48 hrs by Annexin V-FITC/PI staining by flow cytometric analysis (reference value: 3%); format: functional
MDA-MB-231 [10] = assay: Induction of apoptosis in human MDA-MB-231 cells assessed as necrotic cells at 1 uM incubated for 48 hrs by Annexin V-FITC/PI staining by flow cytometric analysis (reference value: 15%); format: functional
MDA-MB-231 [11] = assay: Induction of apoptosis in human MDA-MB-231 cells assessed as early apoptotic cells at 1 uM incubated for 48 hrs by Annexin V-FITC/PI staining by flow cytometric analysis (reference value: 5%); format: functional
MDA-MB-231 [12] = assay: Induction of apoptosis in human MDA-MB-231 cells assessed as viable cells at 1 uM incubated for 48 hrs by Annexin V-FITC/PI staining by flow cytometric analysis (reference value: 77%); format: functional; conditions: MDA-MB-231, 48 h, read-out: Activity

Chain of Histone deacetylase 1 (Q13547 whole entry): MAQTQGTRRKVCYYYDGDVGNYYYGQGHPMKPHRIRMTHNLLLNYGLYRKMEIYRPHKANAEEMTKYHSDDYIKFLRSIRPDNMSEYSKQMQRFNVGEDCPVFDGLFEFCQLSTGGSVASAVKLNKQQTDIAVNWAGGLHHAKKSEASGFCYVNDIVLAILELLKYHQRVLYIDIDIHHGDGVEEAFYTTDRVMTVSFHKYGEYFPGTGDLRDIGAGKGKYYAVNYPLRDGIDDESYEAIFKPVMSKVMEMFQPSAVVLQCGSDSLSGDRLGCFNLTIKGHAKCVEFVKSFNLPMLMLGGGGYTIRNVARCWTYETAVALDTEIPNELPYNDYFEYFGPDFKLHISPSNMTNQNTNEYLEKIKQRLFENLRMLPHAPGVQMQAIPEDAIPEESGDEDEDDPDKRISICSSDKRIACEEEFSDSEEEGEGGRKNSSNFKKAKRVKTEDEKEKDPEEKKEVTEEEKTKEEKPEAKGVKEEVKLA

Row | IC50 [1] [µM] | EC50 (MDA-MB-231 [2]) [µM] | IC50 (Histone deacetylase 1) [µM] | EC50 (MCF7) [µM] | IC50 (Plasmodium falciparum [3]) [µM] | IC50 (Plasmodium falciparum [6]) [µM] | Structure (SMILES) | Selectivity Index [5] | Selectivity Index [7] | also measured
1 | 0.0059 | 2.9 | 0.233 | 2.9 | – | – | O=C(CCCCCCC(=O)Nc1ccc(Nc2nc(NC3CCN(Cc4ccccc4)CC3)c3sccc3n2)cc1)NO | – | – | –
2 | – | 2.9 | – | 3.3 | 0.152 | – | COc1cc2nc(N3CCCN(C)CC3)nc(NC3CCN(Cc4ccccc4)CC3)c2cc1OC | – | – | Activity (KMS-12-BM): Active; inhibition [4]: inactive
3 | 0.00909 | 4.1 | 3.37 | 4.9 | 0.096 | 0.489 | COc1cc2nc(Nc3ccc(NC(=O)CCCCCCC(=O)NO)cc3)nc(NC3CCN(Cc4ccccc4Cl)CC3)c2cc1OC | 8 | 43 | –
4 | 0.00798 | 4.9 | 2.15 | 4.9 | 0.111 | 0.296 | COc1cc2nc(Nc3ccc(NC(=O)CCCCCCC(=O)NO)cc3)nc(NC3CCN(Cc4ccc(F)cc4)CC3)c2cc1OC | 17 | 44 | –
5 | – | – | – | – | – | – | O=C(CCCCCCC(=O)Nc1ccccc1)NO [VORINOSTAT] | – | – | EC50 (OPM-2): 2.9 µM
6 | < 0.0005 | 5.1 | 1.03 | 12 | 0.2 | 0.878 | COc1cc2nc(Nc3ccc(NC(=O)CCCCCCC(=O)NO)cc3)nc(NC3CCN(Cc4ccccc4)CC3)c2cc1OC | 6 | 26 | Ratio IC50 [8]: 40
7 | 0.0355 | 7 | 3.08 | 7.7 | – | – | COc1cc2nc(N3CCN(C(=O)CCCCCCC(=O)NO)CC3)nc(NC3CCN(Cc4ccccc4)CC3)c2cc1OC | – | – | –
8 | – | – | – | – | – | – | COc1cccc2c1C(=O)c1c(O)c3c(c(O)c1C2=O)C[C@@](O)(C(=O)CO)C[C@@H]3O[C@H]1C[C@H](N)[C@H](O)[C@H](C)O1 [DOXORUBICIN] | – | – | Activity (MDA-MB-231 [9]): 92%; Activity (MDA-MB-231 [10]): 6%; Activity (MDA-MB-231 [11]): 1%; viability at 1 µM (MDA-MB-231 [12]): 1%
